Reference: patent US20240182531A1, “KV1.3 Blockers” (priority 2021, published 2024)
Several values for one entry are separate records, joined by “and”; a condition that tells them apart may be missing. Equal entries are not always repeated. Where two headings read alike, the source gives them in different places. Where a SMILES comes first, the peptide text is derived from it. Bridges are numbered along the chain shown (N, C = ends). [ ]: non-standard residue; d: D form. Nle = CCCC[C@H](N)C(=O)O

Columns and labels:
human Kv1.6 = target: T1, human Kv1.6 (Homo sapiens, UniProt P17658); assay: cell-based
T1 construct: expressed in transfected cells; host or cells: CHO
T1 sequence (P17658 whole entry): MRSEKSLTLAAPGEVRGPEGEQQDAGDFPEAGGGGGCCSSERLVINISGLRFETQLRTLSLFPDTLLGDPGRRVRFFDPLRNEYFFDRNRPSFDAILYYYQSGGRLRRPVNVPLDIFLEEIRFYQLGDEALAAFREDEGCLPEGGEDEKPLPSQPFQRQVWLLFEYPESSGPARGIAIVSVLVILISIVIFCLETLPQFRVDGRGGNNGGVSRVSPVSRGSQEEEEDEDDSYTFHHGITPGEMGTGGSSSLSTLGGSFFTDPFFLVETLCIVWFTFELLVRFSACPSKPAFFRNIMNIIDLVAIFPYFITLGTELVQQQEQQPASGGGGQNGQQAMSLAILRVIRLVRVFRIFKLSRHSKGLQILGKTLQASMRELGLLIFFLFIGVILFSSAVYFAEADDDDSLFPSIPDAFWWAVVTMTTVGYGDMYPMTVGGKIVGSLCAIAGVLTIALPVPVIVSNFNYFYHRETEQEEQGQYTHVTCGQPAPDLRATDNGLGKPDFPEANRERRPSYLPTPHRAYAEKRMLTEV

[1] = tested on: KLH ear inflammation model in rats; assay type: in vivo, rat; details: 100 nmol/kg SC 24 hrs prior to KLH ear challenge; +/− SD
Rat whole blood = Rat whole blood (Rattus norvegicus, UniProt P15384); assay type: cell-based; details: IL-17A release, thapsigargin, 24 Hr, at least 2 replicates
Chain of Rat whole blood (P15384 whole entry): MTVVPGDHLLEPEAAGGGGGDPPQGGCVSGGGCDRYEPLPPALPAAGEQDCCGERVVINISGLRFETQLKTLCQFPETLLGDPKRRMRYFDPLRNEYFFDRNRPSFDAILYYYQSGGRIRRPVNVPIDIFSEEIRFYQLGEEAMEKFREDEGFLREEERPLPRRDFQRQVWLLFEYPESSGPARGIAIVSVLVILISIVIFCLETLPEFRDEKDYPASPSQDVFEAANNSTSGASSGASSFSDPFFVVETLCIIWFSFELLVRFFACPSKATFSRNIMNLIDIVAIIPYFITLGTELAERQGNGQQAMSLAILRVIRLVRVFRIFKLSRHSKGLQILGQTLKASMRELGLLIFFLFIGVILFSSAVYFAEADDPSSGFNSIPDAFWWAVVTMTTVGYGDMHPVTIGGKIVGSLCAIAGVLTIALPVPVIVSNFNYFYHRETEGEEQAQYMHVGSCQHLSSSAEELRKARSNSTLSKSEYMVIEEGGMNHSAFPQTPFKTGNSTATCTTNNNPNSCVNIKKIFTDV

human Kv1.1 = target: T2, human Kv1.1 (Homo sapiens, UniProt Q09470); assay: cell-based
T2 construct: expressed in transfected cells; host or cells: CHO
T2 sequence (Q09470 whole entry): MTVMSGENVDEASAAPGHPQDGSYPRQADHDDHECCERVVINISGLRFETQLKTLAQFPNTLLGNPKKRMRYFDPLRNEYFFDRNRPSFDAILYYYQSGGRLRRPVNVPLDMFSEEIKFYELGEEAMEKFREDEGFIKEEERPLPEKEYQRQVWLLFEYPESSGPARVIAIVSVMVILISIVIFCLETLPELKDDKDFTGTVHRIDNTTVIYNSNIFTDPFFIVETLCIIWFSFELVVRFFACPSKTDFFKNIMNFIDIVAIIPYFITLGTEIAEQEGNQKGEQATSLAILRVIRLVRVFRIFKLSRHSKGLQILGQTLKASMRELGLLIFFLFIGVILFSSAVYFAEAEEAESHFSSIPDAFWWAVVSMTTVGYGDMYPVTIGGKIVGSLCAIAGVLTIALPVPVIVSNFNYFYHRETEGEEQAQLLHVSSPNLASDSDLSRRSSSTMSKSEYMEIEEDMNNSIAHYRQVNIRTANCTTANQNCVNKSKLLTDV

human Kv1.2 = target: T3, human Kv1.2 (Homo sapiens, UniProt P16389); assay: cell-based
T3 construct: expressed in transfected cells; host or cells: CHO
T3 sequence (P16389 whole entry): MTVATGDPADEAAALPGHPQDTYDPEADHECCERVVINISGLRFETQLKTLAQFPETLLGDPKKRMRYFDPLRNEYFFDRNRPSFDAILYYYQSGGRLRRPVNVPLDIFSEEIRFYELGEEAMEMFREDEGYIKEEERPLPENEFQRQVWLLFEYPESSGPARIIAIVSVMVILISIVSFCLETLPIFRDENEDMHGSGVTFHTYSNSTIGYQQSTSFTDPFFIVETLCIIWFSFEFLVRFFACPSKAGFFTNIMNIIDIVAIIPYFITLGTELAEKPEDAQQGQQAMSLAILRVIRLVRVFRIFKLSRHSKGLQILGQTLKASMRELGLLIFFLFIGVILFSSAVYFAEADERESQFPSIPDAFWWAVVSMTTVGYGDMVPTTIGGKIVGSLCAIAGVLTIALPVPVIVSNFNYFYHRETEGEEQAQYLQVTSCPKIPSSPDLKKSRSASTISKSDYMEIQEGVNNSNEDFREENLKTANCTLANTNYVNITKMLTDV

[2] = Pharmacokinetic characterisation after single s.c. injection in Sprague Dawley rats; details: male, rat, plasma, sc, 100 nmol/kg
Experimental: Sprague Dawley (males with a body weight of approximately 250-350 g) were given a single subcutaneous (s.c.) injection of each peptide to be tested.
Following s.c. administration of the selected compounds (dose 100 nmol/kg, dosing volume either 2 mL/kg), blood samples were drawn at 5 min, 15 min, 30 min, 60 min, 2 h, 3 h, 4 h, 6 h, 8 h post-dose. At each sampling time point, samples from the rats were drawn by sublingual bleeding. After last sampling the rats were sacrificed by O2/CO2 anaesthesia. The dosing vehicle was 10 mM phosphate, 0.8% NaCl, 0.05% Polysorbate 20 (pH 6.0).
Plasma samples were analyzed after solid phase extraction (SPE) by liquid chromatography mass spectrometry (LC-MS/MS). Mean plasma concentrations were used for calculation of the pharmacokinetic parameters using the non-compartmental approach in Phoenix WinNonlin 6.4 or a later version. Plasma terminal elimination half-life (T½) was determined as In(2)/λz where λz is the magnitude of the slope of the log linear regression of the log concentration versus time profile during the terminal phase. AUCinf is the area under the plasma concentration—time curve extrapolated to infinity (AUCinf=AUClast+Clast/λz, where Clast is the last observed plasma concentration). Cmax is the maximum observed concentration, occurring at Tmax.

[3] = tested on: Human peripheral blood mononuclear cells (PBMCs); assay type: cell-based; details: geometric mean, at least 4 replicates, Example 5a
Experimental: Human peripheral blood mononuclear cells (PBMCs) were used to assess the effects of Kv1.3 blocker reference compounds on T-cell activation as determined by IL-2 (cytokine) release after stimulation with anti-CD3.
Human PBMCs were obtained from Precision for Medicine (Frederick, MD). Cells from 5 donors were used. Plate-bound anti-CD3 was used to stimulate bulk T cells in the PBMC preparations. Briefly, 96-well plates were coated with anti-CD3 antibody for 2 hrs at 37° C., using 50 μL of a 0.5 μg/mL anti-CD3 solution diluted in 1×PBS. Thereafter the plates were washed twice.
Kv1.3 blockers as shown in Table 8a were diluted in medium (RPMI 1640 with Glutamax-I containing 10% v/v Fetal Bovine Serum, 1% v/v penicillin-streptomycin solution) and added in a volume of 100 μL at concentrations ranging from 0.01 pM to 100 nM (tenfold dilutions). […] Finally, 1×10^5 PBMCs were added to each well in a volume of 100 μL, giving a final volume of 200 μL per well. The plates were incubated for 20-24 hours in a 37 °C/5% CO2 incubator. After centrifugation of the plates, 25 μl supernatant was transferred to IL-2 detection plates (MSD Human IL-2 Tissue Culture Kit, cat #K151AHB-2) and IL-2 was measures as described by the manufacturer (Meso Scale Discovery, Rockville, Maryland, USA).
Results are shown in Table 8a as geometric mean of IC50 values obtained from anti-CD3 stimulated human PBMC assays. All values derive from at least 4 replicates.

[4] = target: T4, human Kv1.3 voltage-gated K+ channel (Homo sapiens, UniProt P22001); assay: Kv1.3 blocker activity in FLIPR thallium assay; assay type: cell-based
T4 construct: host or cells: CHO-DUKX
T4 sequence (P22001 whole entry): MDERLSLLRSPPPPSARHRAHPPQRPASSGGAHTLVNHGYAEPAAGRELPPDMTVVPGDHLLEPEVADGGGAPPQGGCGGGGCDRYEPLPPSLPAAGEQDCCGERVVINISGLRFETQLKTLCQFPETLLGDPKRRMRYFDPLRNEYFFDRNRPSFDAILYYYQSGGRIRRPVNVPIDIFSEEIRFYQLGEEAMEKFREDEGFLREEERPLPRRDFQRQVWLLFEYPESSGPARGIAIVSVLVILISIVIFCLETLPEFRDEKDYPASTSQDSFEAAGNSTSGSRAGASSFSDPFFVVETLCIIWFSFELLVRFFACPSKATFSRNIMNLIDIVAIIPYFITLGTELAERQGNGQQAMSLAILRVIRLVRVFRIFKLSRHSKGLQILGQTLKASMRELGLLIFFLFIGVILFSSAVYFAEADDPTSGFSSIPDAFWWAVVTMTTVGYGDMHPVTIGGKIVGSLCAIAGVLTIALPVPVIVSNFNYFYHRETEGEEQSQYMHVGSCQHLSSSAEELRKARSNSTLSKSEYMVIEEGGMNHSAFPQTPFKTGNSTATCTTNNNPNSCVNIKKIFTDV
Experimental: A human Kv1.3 voltage-gated K+ channel cell line was purchased from Perkin Elmer (#TDS-AX-010-C-1). The cell line is based on CHO-DUKX cells stably transfected with the human Kv1.3 voltage-gated K+ channel.
The cell line was grown in MEMα with nucleotides, GlutaMAX (Gibco #32571028), 10% Foetal Bovine Serum (FBS), 0.4 mg/ml Geneticin, 100 units/ml Penicillin, and 100 μg/ml Streptomycin and seeded at 10.000 cells/well in black poly-D-lysine-coated 96 well plates.
The FluxOR™ Potassium Ion Channel Assay (Invitrogen #F10016) was used to quantitate flux of thallium ions into the cells as a response to Kv1.3 activation with a stimulus buffer causes depolarization of the cell membrane, thereby generating a fluorescent signal, proportional to channel activity. The assay was performed as described by the assay kit manufacturer including a compound pre-incubation step (30 min, 37° C., 5% CO2) in assay buffer containing 0.02% W/v casein from bovine milk (Sigma #C4765) prior to cell membrane depolarization using a final stimuli buffer composition corresponding to 0.2× FluxOR™ chloride-free buffer, 5 mM K2SO4, 1 mM Tl2SO4. The fluorescence responses were recorded and quantified (maximum response at 50 s, 37° C.) using the FLIPR® Tetra High Throughput Screening System (Molecular Devices, Inc.).
IC50 can be regarded as a measure of potency of inhibition for the respective compound. The IC50 value is a measure of the concentration of an inhibitor required to achieve half of that compound's maximal inhibition of ion channel activity in a given assay.

[5] = ratio of patch clamp IC50 values

| SMILES | Selectivity ratio Kv1.6/Kv1.3 (human Kv1.6; [5]) | % inhibition of ear thickness (AUC of Δ ear thickness 0-48 hours) [1] | IC50 (Rat whole blood) [nM] | Selectivity ratio Kv1.1/Kv1.3 (human Kv1.1; [5]) | Selectivity ratio Kv1.2/Kv1.3 (human Kv1.2; [5]) | AUC(0-inf) [2] [µM·h] | Cmax [2] [nM] | half-life [2] [h] | IC50 ([3]; read-out: anti-CD3 PBMC/IL-2 IC50) [nM] | Selectivity ratio Kv1.6/Kv1.3 (human Kv1.6) | Selectivity ratio Kv1.1/Kv1.3 (human Kv1.1) | Selectivity ratio Kv1.2/Kv1.3 (human Kv1.2) | anti-CD3 PBMC/IL-2 IC50 [3] | IC50 [4] [nM] |
| --- | --- | --- | --- | --- | --- | --- | --- | --- | --- | --- | --- | --- | --- | --- |
| CCCC[C@H](NC(=O)[C@@H]1CCCN1)C(=O)N[C@@H](CCC(=O)O)C(=O)N[C@@H](CCCC)C(=O)N[C@@H](CCCNC(=N)N)C(=O)N[C@H]1CSSC[C@@H]2NC(=O)[C@H](CCCCN)NC(=O)CNC(=O)[C@H](Cc3ccccc3)NC(=O)[C@H]([C@@H](C)CC)NC(=O)[C@H](CO)NC(=O)CNC(=O)[C@H]([C@@H](C)CC)NC(=O)[C@H](C)NC(=O)[C@H](C)NC(=O)[C@H](CC(C)C)NC(=O)[C@@H]3CSSC[C@@H](C(=O)N[C@@H](Cc4ccc(O)cc4)C(=O)N4CCC[C@H]4C(=O)N[C@@H](CCCNC(=N)N)C(=O)O)NC(=O)[C@H](CCCCN)NC(=O)[C@H](CSSC[C@H](NC(=O)[C@H](CCC(=O)O)NC(=O)[C@H](C(C)C)NC(=O)[C@H](CO)NC(=O)[C@H](C)NC(=O)[C@H](CO)NC1=O)C(=O)N[C@@H](CCCCN)C(=O)N[C@@H](CCC(N)=O)C(=O)N[C@@H](CCCCN)C(=O)N3)NC(=O)[C@H](CCCCN)NC(=O)[C@H](CCCCN)NC(=O)[C@H](CC(N)=O)NC(=O)[C@H](CCCC)NC2=O [compound 14] (H-P[Nle]E[Nle]RCSASVECKQKCLAAIGSIFGKC[Nle]NKKCKCYPR-OH; disulfide 6-27, 12-32, 16-34) | >9100 | 37.7% and 42.5% | 0.43 | >9100 | 3384 | 0.183 | 103 | 1 |  |  |  |  |  |  |
| CCCC[C@@H]1NC(=O)[C@@H]2CSSC[C@H](NC(=O)[C@H](CCCNC(=N)N)NC(=O)[C@H](CCSC)NC(=O)[C@H](CC(=O)O)NC(=O)[C@H](CCSC)NC(=O)[C@@H](N)CC(N)=O)C(=O)N[C@@H](CO)C(=O)N[C@@H](C)C(=O)N[C@@H](CO)C(=O)N[C@@H](C(C)C)C(=O)N[C@@H](CCC(=O)O)C(=O)N[C@H]3CSSC[C@H](NC(=O)[C@H](CCCCN)NC(=O)[C@H](CCCCN)NC(=O)[C@H](CC(N)=O)NC1=O)C(=O)N[C@@H](CCCCN)C(=O)N[C@H](C(=O)N[C@@H](Cc1ccc(O)cc1)C(=O)N1CCC[C@H]1C(=O)N[C@@H](CCCNC(=N)N)C(N)=O)CSSC[C@H](NC(=O)[C@H](CCCCN)NC(=O)[C@H](CCC(N)=O)NC(=O)[C@H](CCCCN)NC3=O)C(=O)N[C@@H](CC(C)C)C(=O)N[C@@H](CCCCN)C(=O)N[C@@H](C)C(=O)N[C@@H]([C@@H](C)CC)C(=O)NCC(=O)N[C@@H](CO)C(=O)N[C@@H]([C@@H](C)CC)C(=O)N[C@@H](Cc1ccccc1)C(=O)NCC(=O)N[C@@H](CCCCN)C(=O)N2 [compound 21] (H-NMDMRCSASVECKQKCLKAIGSIFGKC[Nle]NKKCKCYPR-NH2; disulfide 6-27, 12-32, 16-34) | 10360 |  |  | >12600 | 561 |  |  |  | 0.05 |  |  |  |  |  |
| CC[C@H](C)[C@H](N)C(=O)N[C@@H](CC(N)=O)C(=O)N[C@H](C(=O)N[C@@H](CCCCN)C(=O)N[C@H]1CSSC[C@@H]2NC(=O)[C@H](CCCCN)NC(=O)CNC(=O)[C@H](Cc3ccccc3)NC(=O)[C@H](CCCNC(=N)N)NC(=O)[C@H](CCSC)NC(=O)CNC(=O)[C@H](C)NC(=O)[C@H](CC(=O)O)NC(=O)[C@H](CCCCN)NC(=O)[C@@H]3CSSC[C@@H](C(=O)N[C@@H](Cc4ccc(O)cc4)C(=O)N[C@@H](CO)C(=O)O)NC(=O)[C@H](CCCNC(=N)N)NC(=O)[C@H](CSSC[C@H](NC(=O)[C@H](CCC(N)=O)NC(=O)[C@H](CCC(N)=O)NC(=O)[C@@H]4CCCN4C(=O)[C@H](CC(C)C)NC(=O)[C@H](CO)NC1=O)C(=O)N[C@@H]([C@@H](C)CC)C(=O)N[C@@H](CCCCN)C(=O)N1CCC[C@H]1C(=O)N3)NC(=O)[C@H](CCCCN)NC(=O)[C@H](CCCCN)NC(=O)[C@H](CC(N)=O)NC(=O)[C@H](CCSC)NC2=O)C(C)C [Moka1] |  |  |  |  |  |  |  |  |  | >300 | >300 | 31 | less potent in inhibiting IL-2 secretion |  |
| CCCC[C@H](NC(=O)[C@@H]1CCCN1)C(=O)N[C@@H](CCC(=O)O)C(=O)N[C@@H](CCCC)C(=O)N[C@@H](CCCNC(=N)N)C(=O)N[C@H]1CSSC[C@@H]2NC(=O)[C@H](CCCCN)NC(=O)CNC(=O)[C@H](Cc3ccccc3)NC(=O)[C@H]([C@@H](C)CC)NC(=O)[C@H](CO)NC(=O)CNC(=O)[C@H]([C@@H](C)CC)NC(=O)[C@H](C)NC(=O)[C@H](C)NC(=O)[C@H](CC(C)C)NC(=O)[C@@H]3CSSC[C@@H](C(=O)N[C@@H](Cc4ccc(O)cc4)C(=O)N4CCC[C@H]4C(=O)N[C@@H](CCCNC(=N)N)C(=O)O)NC(=O)[C@H](CCCCN)NC(=O)[C@H](CSSC[C@H](NC(=O)[C@H](CCC(=O)O)NC(=O)[C@H](C(C)C)NC(=O)[C@H](CO)NC(=O)[C@H](C)NC(=O)[C@H](Cc4c[nH]cn4)NC1=O)C(=O)N[C@@H](CCCCN)C(=O)N[C@@H](CCC(N)=O)C(=O)N[C@@H](CCCCN)C(=O)N3)NC(=O)[C@H](CCCCN)NC(=O)[C@H](CCCCN)NC(=O)[C@H](CC(N)=O)NC(=O)[C@H](CCCC)NC2=O [compound 4] (H-P[Nle]E[Nle]RCHASVECKQKCLAAIGSIFGKC[Nle]NKKCKCYPR-OH; disulfide 6-27, 12-32, 16-34) |  |  |  |  |  | 0.138 | 91.8 | 2.7 |  |  |  |  |  | 0.15 |
| CCCC[C@@H]1NC(=O)[C@@H]2CSSC[C@H](NC(=O)[C@H](CCCNC(=N)N)NC(=O)[C@H](CCCC)NC(=O)[C@H](CC(=O)O)NC(=O)[C@@H](NC(=O)[C@@H](N)CC(N)=O)[C@@H](C)CC)C(=O)N[C@@H](CO)C(=O)N[C@@H](C)C(=O)N[C@@H](CO)C(=O)N[C@@H](C(C)C)C(=O)N[C@@H](CCC(=O)O)C(=O)N[C@H]3CSSC[C@H](NC(=O)[C@H](CCCCN)NC(=O)[C@H](CCCCN)NC(=O)[C@H](CC(N)=O)NC1=O)C(=O)N[C@@H](CCCCN)C(=O)N[C@H](C(=O)N[C@@H](Cc1ccc(O)cc1)C(=O)N1CCC[C@H]1C(=O)N[C@@H](CCCNC(=N)N)C(=O)O)CSSC[C@H](NC(=O)[C@H](CCCCN)NC(=O)[C@H](CCC(N)=O)NC(=O)[C@H](CCCCN)NC3=O)C(=O)N[C@@H](CC(C)C)C(=O)N[C@@H](CCCCN)C(=O)N[C@@H](C)C(=O)N[C@@H]([C@@H](C)CC)C(=O)NCC(=O)N[C@@H](CO)C(=O)N[C@@H]([C@@H](C)CC)C(=O)N[C@@H](Cc1ccccc1)C(=O)NCC(=O)N[C@@H](CCCCN)C(=O)N2 [compound 91] (H-NID[Nle]RCSASVECKQKCLKAIGSIFGKC[Nle]NKKCKCYPR-OH; disulfide 6-27, 12-32, 16-34) | >11300 | 39.6% | 1.2 | >11300 | 7756 |  |  |  |  |  |  |  |  |  |
